From patent publication US6372297B1, “Wood preservative oxathiazines” (Uniroyal Chemical Company, Inc., priority 1993, dated 2002)
≈ marks a conversion by molar mass, not a printed value. Where two headings read alike, the source gives them in different places.

Key:
[1] = test system: blue-stain fungi and molds; test: Activity against blue-stain fungi and molds in a stick test (threshold concentrations); conditions: beech sticks, 22° C., 90% relative humidity; for Threshold concentration (ppm), A. niger, score 0 / Threshold concentration (ppm), Aureobasidium, score 0 / Threshold concentration (ppm), Sclerophoma, score 0 / Threshold concentration (ppm), Trichoderma, score 0: minimum concentration to obtain score 0; for Threshold concentration (ppm), A. niger, score 1-2 / Threshold concentration (ppm), Aureobasidium, score 1-2 / Threshold concentration (ppm), Sclerophoma, score 1-2 / Threshold concentration (ppm), Trichoderma, score 1-2: minimum concentration to obtain score 1-2
Procedure: Representative compounds of this invention were dissolved in 50% ethanol. Each compound was then diluted serially using 50% ethanol. […] After three (3) hours, the solutions containing the test compounds were poured off and the treated sticks were allowed to dry in a sterile laminar air flow. Each treated stick was then placed in a Petri dish which had been previously seeded with inoculum. Two drops of a test fungal or spore suspension were pipetted onto the upper surface of each treated stick. The Petri dishes containing the treated sticks were incubated at 22° C. and 90% relative humidity. The treated sticks were evaluated after there was sufficient growth of fungus on control sticks (i.e., untreated sticks) incubated in the same manner. The following score system was used: 0: Stick free of fungal/mold growth 1: Traces of fungal growth on the stick 2: Slight growth (5 to 25% of the surface covered with fungal growth) 3: Moderate growth (25 to 50% covered with fungal growth) 4. Vigorous to maximum fungal growth (more than 50% growth) […]

[2] = test system: molds and blue-stain fungi; test: In vitro activity against molds and blue-stain fungi, poison plate assay (MIC); assay type: cell-based; conditions: malt extract agar, complete inhibition
Procedure: The effect of the representative compounds on the growth of certain molds and blue-strain fungi were determined using a poison plate assay according to the following procedure: The solutions of the representative compounds prepared above were further diluted with sterile water to desired concentrations and poured into Petri dishes. Malt extract agar medium was then added aseptically to the Petri dishes and to Petri dishes containing no compound (controls). The Petri dishes were then shaken to provide a uniform distribution of the agar medium. Each Petri dish containing compound and each control Petri dish, was then inoculated with a fungus and incubated for a period of time sufficient to permit complete growth of the fungus in the respective control Petri dish. The Petri dishes containing compound were then examined to determine the amount of inhibition of fungi for each concentration of compound tested.

[3] = A. amstelodami, read-out: MIC (ppm) against A. amstelodami
[4] = Aspergillus niger, A. niger, read-out: MIC (ppm) against A. niger
[5] = Aspergillus versicolor, A. versicolor, read-out: MIC (ppm) against A. versicolor
[6] = Aureobasidium pullulans, A. pullulans, read-out: MIC (ppm) against A. pullulans
[7] = C. pilifera, read-out: MIC (ppm) against C. pilifera
[8] = Cladosporium cladosporioides, C. cladosporioides, read-out: MIC (ppm) against C. cladosporioides
[9] = Fusarium solani, F. solani, read-out: MIC (ppm) against F. solani
[10] = Geotrichum candidum, G. candidum, read-out: MIC (ppm) against G. candidum
[11] = P. purpurogenum, read-out: MIC (ppm) against P. purpurogenum
[12] = P. violacea, read-out: MIC (ppm) against P. violacea
[13] = Paecilomyces variotii, P. variotii, read-out: MIC (ppm) against P. variotii
[14] = S. atra, read-out: MIC (ppm) against S. atra
[15] = S. entoxylina, read-out: MIC (ppm) against S. entoxylina
[16] = Trichoderma viride, T. viride, read-out: MIC (ppm) against T. viride
[17] = U. atrum, read-out: MIC (ppm) against U. atrum

SMILES | Threshold concentration (ppm), A. niger, score 0 [1] [ppm] | Threshold concentration (ppm), A. niger, score 1-2 [1] | Threshold concentration (ppm), Aureobasidium, score 0 [1] [ppm] | Threshold concentration (ppm), Aureobasidium, score 1-2 [1] | Threshold concentration (ppm), Sclerophoma, score 0 [1] [ppm] | Threshold concentration (ppm), Sclerophoma, score 1-2 [1] | Threshold concentration (ppm), Trichoderma, score 0 [1] [ppm] | Threshold concentration (ppm), Trichoderma, score 1-2 [1] | MIC (ppm) against A. amstelodami ([2]; A. amstelodami) [ppm] | MIC (ppm) against A. niger ([2]; A. niger) [ppm] | MIC (ppm) against A. pullulans ([2]; A. pullulans) [ppm] | MIC (ppm) against A. versicolor ([2]; A. versicolor) [ppm] | MIC (ppm) against C. cladosporioides ([2]; C. cladosporioides) [ppm] | MIC (ppm) against C. pilifera ([2]; C. pilifera) [ppm] | MIC (ppm) against F. solani ([2]; F. solani) [ppm] | MIC (ppm) against G. candidum ([2]; G. candidum) [ppm] | MIC (ppm) against P. purpurogenum ([2]; P. purpurogenum) [ppm] | MIC (ppm) against P. variotii ([2]; P. variotii) [ppm] | MIC (ppm) against P. violacea ([2]; P. violacea) [ppm] | MIC (ppm) against S. atra ([2]; S. atra) [ppm] | other results
[O-][S+]1CCON=C1c1nc2ccccc2s1 (stereo not shown) [Compound 85, 5,6-dihydro-3-(2-benzothiazolyl)-1,4,2-oxathiazine-4-oxide] | 1000 | <250 ppm | 1000 | 250-500 ppm | 100 | <50 ppm | 2500 | 1000-2500 ppm | – | – | – | – | – | – | – | – | – | – | – | – | MIC [2, 3]: 5 mg/L (≈ 19.8 µM); MIC [2, 4]: 5 mg/L (≈ 19.8 µM); MIC [2, 5]: 2.5 mg/L (≈ 9.91 µM); MIC [2, 6]: 25 mg/L (≈ 99.1 µM); MIC [2, 7]: 2.5 mg/L (≈ 9.91 µM); MIC [2, 8]: 25 mg/L (≈ 99.1 µM); MIC [2, 9]: 25 mg/L (≈ 99.1 µM); MIC [2, 10]: 10 mg/L (≈ 39.6 µM); MIC [2, 11]: 10 mg/L (≈ 39.6 µM); MIC [2, 12]: 10 mg/L (≈ 39.6 µM); MIC [2, 13]: 25 mg/L (≈ 99.1 µM); MIC [2, 14]: 2.5 mg/L (≈ 9.91 µM); MIC [2, 15]: 5 mg/L (≈ 19.8 µM); MIC [2, 16]: 25 mg/L (≈ 99.1 µM); MIC [2, 17]: 10 mg/L (≈ 39.6 µM)
Cc1ccc2oc(C3=NOCC[S+]3[O-])nc2c1 (stereo not shown) [Compound 89] | 500 | 250-500 ppm | >1000 | 100-250 ppm | 250 | <50 ppm | 2500 | 1000-2500 ppm | – | – | – | – | – | – | – | – | – | – | – | – | –
[O-][S+]1CCON=C1c1nc2ccccc2o1 (stereo not shown) [Compound 81] | 500 | 250-500 ppm | >1000 | 250-500 ppm | 250 | <50 ppm | 2500 | 500-1000 ppm | – | – | – | – | – | – | – | – | – | – | – | – | –
[O-][S+]1CCON=C1c1ccc(Cl)s1 (stereo not shown) [Compound 60, 3-(5-Chloro-2-thienyl)-5.6-dihydro-1.4.2-oxathiazine-4-oxide] | 500 | <250 ppm | 1000 | 100-250 ppm | 100 | <50 ppm | 2500 | 500-1000 ppm | 5 | 5 | 25 | 2.5 | 25 | 5 | 10 | 25 | 25 | 10 | 10 | 5 | MIC (ppm) against S. entoxylina ([2]; S. entoxylina): 5 ppm; MIC (ppm) against T. viride ([2]; T. viride): 25 ppm; MIC (ppm) against U. atrum ([2]; U. atrum): 10 ppm
O=S1(=O)CCON=C1c1nc2ccccc2s1 [Compound 83, 5,6-dihydro-3-(2-benzothiazolyl)-1,4,2-oxathiazine 4,4-dioxide] | – | – | – | – | – | – | – | – | – | – | – | – | – | – | – | – | – | – | – | – | MIC [2, 3]: > 25 mg/L; MIC [2, 4]: > 25 mg/L; MIC [2, 5]: 25 mg/L (≈ 93.2 µM); MIC [2, 6]: > 25 mg/L; MIC [2, 7]: 10 mg/L (≈ 37.3 µM); MIC [2, 8]: > 25 mg/L; MIC [2, 9]: > 25 mg/L; MIC [2, 10]: > 25 mg/L; MIC [2, 11]: > 25 mg/L; MIC [2, 12]: > 25 mg/L; MIC [2, 13]: > 25 mg/L; MIC [2, 14]: 5 mg/L (≈ 18.6 µM); MIC [2, 15]: 10 mg/L (≈ 37.3 µM); MIC [2, 16]: > 25 mg/L; MIC [2, 17]: > 25 mg/L
[O-][S+]1CCON=C1c1cc2ccccc2s1 (stereo not shown) [Compound 87] | 1000 | 250-500 ppm | 1000 | 100-250 ppm | 100 | 50-100 ppm | 5000 | 1000-2500 ppm | 5 | 2.5 | 10 | 2.5 | 25 | 2.5 | 10 | 25 | 2.5 | 10 | 10 | 2.5 | MIC (ppm) against S. entoxylina ([2]; S. entoxylina): 5 ppm; MIC (ppm) against T. viride ([2]; T. viride): 10 ppm; MIC (ppm) against U. atrum ([2]; U. atrum): 10 ppm
CC1CS(=O)(=O)C(c2cccs2)=NO1 (stereo not shown) [Compound 51, 5,6-dihydro-6-methyl-3-(2-thienyl)-1,4,2-oxathiazine-4,4, dioxide] | 500 | 250-500 ppm | >1000 | 250-500 ppm | 100 | 50-100 ppm | 1000 | 500-1000 ppm | – | – | – | – | – | – | – | – | – | – | – | – | –
CCOC(=O)c1ccc(C2=NOCC[S+]2[O-])s1 (stereo not shown) [Compound 54] | 500 | <250 ppm | 500 | 250-500 ppm | 100 | <50 ppm | 5000 | 500-1000 ppm | – | – | – | – | – | – | – | – | – | – | – | – | –
N#Cc1ccc(C2=NOCC[S+]2[O-])s1 (stereo not shown) [Compound 57] | 500 | <250 ppm | >1000 | 250-500 ppm | 100 | <50 ppm | 1000 | 500-1000 ppm | 10 | 10 | >25 | 10 | 25 | 10 | 25 | 25 | 10 | 25 | 25 | 10 | MIC (ppm) against S. entoxylina ([2]; S. entoxylina): 10 ppm; MIC (ppm) against T. viride ([2]; T. viride): >25 ppm; MIC (ppm) against U. atrum ([2]; U. atrum): 25 ppm
